# Source: PMC4858680, “A platinum-based hybrid drug design approach to circumvent acquired resistance to molecular targeted tyrosine kinase inhibitors” (Scientific Reports, 2016)
# Like-named read-outs stand apart in the source and are kept apart here.
# Tests used:
# [1] = biological target: T1, EPHA7 (Homo sapiens, UniProt Q15375); format: binding; settings: for remaining binding at 10 µM: read-out: Percent control
# T1 construct: purchased DiscoveRx KINOMEscan
# [2] = biological target: T2, EPHA8 (Homo sapiens, UniProt P29322); format: binding; settings: for remaining binding at 10 µM: read-out: Percent control
# T2 construct: purchased DiscoveRx KINOMEscan
# T2 sequence (P29322 28-1005): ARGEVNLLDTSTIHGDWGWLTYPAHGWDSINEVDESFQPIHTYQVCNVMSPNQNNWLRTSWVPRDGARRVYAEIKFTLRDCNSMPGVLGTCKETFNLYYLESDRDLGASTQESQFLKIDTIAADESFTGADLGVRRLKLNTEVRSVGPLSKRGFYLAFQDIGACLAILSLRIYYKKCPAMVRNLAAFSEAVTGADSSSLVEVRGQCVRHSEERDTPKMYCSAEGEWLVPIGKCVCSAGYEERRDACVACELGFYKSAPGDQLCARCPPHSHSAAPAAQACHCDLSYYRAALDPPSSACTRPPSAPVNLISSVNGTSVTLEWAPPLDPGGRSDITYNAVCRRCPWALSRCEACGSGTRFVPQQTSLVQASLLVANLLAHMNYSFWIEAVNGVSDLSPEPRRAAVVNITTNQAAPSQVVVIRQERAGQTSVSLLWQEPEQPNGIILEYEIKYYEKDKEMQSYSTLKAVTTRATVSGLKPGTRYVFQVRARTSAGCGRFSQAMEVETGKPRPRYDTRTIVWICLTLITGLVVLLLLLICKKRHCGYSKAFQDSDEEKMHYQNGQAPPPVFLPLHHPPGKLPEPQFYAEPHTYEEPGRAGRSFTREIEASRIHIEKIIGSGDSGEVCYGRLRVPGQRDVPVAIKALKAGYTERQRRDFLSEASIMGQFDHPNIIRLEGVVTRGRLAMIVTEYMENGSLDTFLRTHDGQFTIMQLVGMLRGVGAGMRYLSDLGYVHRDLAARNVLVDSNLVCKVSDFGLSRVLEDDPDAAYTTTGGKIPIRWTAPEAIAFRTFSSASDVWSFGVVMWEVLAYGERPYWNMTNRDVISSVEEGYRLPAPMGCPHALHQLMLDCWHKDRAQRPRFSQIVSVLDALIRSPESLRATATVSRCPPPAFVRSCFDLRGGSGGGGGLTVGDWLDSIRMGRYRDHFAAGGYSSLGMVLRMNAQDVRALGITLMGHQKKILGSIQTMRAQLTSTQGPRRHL
# [3] = biological target: T3, TNK1 (Homo sapiens, UniProt Q13470); format: binding; settings: for Percent control: 10 μM; for remaining binding at 10 µM: read-out: Percent control
# T3 construct: purchased DiscoveRx (KINOMEscan service)
# T3 sequence (Q13470 1-666): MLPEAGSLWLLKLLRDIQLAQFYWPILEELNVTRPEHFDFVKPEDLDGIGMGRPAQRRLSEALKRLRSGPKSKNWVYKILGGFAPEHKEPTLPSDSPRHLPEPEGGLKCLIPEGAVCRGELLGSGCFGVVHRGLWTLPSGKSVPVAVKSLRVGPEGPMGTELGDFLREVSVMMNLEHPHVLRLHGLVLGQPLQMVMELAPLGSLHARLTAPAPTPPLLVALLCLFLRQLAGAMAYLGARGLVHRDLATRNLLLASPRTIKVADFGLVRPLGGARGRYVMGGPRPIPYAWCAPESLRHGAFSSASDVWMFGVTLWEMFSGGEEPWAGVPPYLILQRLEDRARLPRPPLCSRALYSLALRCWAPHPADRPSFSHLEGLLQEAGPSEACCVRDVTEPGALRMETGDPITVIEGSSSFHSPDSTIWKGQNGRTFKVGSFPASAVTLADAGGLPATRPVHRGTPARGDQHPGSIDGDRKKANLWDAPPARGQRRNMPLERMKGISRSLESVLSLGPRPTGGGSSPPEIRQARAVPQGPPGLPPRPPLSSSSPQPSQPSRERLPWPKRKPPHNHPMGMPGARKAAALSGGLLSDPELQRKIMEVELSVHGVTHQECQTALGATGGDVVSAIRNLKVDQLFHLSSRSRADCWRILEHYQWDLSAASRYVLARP
# [4] = biological target: T4, FLT3(K663D) (Homo sapiens, UniProt P36888, K663Q)
# T4 sequence (P36888 564-993 K663Q limits assumed): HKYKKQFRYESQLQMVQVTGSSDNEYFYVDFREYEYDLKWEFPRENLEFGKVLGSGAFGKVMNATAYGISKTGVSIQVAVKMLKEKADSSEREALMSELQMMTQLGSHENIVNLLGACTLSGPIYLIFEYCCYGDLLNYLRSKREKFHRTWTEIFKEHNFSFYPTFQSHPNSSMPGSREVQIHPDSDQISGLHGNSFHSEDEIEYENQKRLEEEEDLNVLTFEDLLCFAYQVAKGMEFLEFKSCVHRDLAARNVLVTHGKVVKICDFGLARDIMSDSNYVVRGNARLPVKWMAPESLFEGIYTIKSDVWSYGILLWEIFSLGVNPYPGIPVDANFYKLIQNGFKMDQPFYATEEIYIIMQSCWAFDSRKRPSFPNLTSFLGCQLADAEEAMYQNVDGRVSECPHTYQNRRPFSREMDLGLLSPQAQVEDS
# [5] = biological target: ROS1 (Homo sapiens, UniProt P08922); settings: 10 μM
# [6] = biological target: CSK (Homo sapiens, UniProt P41240); assay: biochemical; settings: read-out: Percent control
# CSK, sequence (P41240 whole entry): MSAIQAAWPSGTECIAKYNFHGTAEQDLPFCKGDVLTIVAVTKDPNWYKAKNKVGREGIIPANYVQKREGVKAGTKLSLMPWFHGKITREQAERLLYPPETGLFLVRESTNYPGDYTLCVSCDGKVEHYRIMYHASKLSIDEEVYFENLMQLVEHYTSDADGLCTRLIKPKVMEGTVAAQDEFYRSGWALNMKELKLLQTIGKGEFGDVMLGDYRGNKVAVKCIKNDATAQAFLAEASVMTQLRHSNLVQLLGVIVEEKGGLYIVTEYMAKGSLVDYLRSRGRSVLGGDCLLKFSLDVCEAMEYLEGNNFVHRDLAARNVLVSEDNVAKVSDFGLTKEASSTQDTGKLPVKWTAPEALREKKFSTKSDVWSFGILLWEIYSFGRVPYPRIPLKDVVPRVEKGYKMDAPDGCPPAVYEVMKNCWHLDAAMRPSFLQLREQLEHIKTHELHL
# T1 sequence (Q15375 28-998): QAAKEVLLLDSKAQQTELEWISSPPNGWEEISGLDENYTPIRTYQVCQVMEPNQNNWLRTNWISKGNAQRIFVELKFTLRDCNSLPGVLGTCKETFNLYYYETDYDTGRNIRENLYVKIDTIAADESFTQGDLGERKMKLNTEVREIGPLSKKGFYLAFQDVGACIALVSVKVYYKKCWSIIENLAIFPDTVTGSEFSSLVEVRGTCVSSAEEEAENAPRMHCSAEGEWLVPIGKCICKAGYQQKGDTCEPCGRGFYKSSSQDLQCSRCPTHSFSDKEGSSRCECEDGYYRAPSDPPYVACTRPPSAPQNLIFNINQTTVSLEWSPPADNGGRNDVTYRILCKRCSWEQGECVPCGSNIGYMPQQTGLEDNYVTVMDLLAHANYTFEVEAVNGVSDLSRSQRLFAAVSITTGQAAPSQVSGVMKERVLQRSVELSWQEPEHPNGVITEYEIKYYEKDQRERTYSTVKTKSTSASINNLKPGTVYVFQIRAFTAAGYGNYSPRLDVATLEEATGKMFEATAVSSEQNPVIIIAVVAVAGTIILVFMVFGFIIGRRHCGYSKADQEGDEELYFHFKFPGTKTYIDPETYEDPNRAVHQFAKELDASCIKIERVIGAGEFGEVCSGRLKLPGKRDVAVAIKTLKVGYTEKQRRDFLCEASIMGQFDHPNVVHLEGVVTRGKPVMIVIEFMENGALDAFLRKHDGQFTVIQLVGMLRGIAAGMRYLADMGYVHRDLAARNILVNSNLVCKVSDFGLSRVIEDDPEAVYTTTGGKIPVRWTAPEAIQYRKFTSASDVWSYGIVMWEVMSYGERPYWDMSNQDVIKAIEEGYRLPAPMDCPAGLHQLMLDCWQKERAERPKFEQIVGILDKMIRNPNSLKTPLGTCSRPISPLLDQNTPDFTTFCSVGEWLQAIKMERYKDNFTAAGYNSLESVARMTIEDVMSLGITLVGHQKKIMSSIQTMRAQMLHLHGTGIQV
# ROS1, sequence (P08922 28-2347): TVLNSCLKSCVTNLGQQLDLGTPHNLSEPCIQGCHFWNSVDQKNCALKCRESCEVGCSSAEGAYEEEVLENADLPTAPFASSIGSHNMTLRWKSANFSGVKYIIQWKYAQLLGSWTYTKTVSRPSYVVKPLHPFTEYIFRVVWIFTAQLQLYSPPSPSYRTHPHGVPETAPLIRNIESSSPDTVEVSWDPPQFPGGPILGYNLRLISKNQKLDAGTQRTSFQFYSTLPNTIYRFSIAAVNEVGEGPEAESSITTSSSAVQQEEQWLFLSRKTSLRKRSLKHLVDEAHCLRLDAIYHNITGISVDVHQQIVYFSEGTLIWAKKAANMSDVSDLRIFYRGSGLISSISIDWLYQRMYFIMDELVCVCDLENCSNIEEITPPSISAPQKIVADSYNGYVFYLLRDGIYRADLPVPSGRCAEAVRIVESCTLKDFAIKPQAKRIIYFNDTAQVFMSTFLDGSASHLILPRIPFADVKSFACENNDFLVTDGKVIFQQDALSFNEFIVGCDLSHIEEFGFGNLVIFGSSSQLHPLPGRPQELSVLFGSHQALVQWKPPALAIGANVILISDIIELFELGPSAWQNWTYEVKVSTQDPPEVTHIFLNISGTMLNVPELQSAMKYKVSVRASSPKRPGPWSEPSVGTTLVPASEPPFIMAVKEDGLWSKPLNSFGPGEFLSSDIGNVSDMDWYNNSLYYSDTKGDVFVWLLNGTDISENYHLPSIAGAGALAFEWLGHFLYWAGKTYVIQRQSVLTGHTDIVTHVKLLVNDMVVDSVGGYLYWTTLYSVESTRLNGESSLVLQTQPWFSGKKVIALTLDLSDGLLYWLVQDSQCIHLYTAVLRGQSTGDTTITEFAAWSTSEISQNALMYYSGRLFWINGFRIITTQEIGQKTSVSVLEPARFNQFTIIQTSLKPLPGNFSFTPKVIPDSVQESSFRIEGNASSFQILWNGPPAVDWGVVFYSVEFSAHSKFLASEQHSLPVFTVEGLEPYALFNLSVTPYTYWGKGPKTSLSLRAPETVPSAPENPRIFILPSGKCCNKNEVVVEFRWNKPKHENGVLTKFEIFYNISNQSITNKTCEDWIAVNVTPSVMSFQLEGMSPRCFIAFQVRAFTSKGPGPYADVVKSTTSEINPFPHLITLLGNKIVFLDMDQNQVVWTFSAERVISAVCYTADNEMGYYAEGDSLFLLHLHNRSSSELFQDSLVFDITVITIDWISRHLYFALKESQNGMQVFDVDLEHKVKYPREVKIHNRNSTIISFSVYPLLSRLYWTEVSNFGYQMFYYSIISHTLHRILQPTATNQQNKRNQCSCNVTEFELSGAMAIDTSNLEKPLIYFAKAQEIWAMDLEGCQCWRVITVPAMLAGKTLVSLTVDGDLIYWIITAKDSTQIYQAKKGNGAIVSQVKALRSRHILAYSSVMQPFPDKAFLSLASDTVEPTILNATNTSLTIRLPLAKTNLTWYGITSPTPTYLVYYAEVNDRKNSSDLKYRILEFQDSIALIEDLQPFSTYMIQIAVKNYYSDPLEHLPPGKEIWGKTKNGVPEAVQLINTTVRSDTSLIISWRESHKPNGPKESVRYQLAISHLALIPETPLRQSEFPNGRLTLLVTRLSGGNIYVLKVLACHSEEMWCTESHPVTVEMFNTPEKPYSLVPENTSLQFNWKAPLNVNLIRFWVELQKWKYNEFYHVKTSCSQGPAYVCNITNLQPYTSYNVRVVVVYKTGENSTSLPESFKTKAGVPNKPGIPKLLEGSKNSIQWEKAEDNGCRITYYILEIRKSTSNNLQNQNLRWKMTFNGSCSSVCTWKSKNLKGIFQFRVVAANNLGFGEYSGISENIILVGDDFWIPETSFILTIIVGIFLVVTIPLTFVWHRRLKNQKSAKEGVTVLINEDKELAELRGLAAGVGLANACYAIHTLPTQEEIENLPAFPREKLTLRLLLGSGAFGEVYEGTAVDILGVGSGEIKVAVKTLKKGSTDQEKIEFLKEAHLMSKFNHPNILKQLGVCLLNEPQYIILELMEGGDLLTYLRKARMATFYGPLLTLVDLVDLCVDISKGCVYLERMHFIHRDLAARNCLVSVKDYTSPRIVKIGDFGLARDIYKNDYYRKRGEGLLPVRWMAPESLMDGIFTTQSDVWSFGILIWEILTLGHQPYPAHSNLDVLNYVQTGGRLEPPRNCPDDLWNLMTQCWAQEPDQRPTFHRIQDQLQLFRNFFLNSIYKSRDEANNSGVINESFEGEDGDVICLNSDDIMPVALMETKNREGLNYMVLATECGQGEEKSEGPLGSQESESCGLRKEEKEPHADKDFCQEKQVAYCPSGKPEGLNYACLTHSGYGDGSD
SMILES,"Percent control ([1]; EPHA7, 10 μM)","Percent control ([2]; EPHA8, 10 μM)",Percent control [3],"Percent control ([4]; FLT3(K663D), 10 μM)",Percent control [5],Percent control [4],remaining binding at 10 µM [1],remaining binding at 10 µM [2],remaining binding at 10 µM [3],remaining activity at 10 µM [6],"remaining binding at 10 µM ([1]; EPHA7, 10 μM)","remaining binding at 10 µM ([2]; EPHA8, 10 μM)"
"Cc1ccc(NC(=O)c2ccc(CN3CCN(C)CC3)cc2)cc1Nc1nccc(-c2cccnc2)[n+]1[Pt-2]1([Cl])[NH2+]C2CCCCC2[NH2+]1 (centres unmarked) [1b, oxaliplatin-imatinib]",100%,68%,90%,84%,32%,,,,,,,
"C#Cc1cccc(Nc2c3cc(OCCOC)c(OCCOC)cc3nc[n+]2[Pt@SP2-2]([NH3+])([NH3+])[Cl])c1 [2a, cisplatin-erlotinib]",67%,56%,85%,,91%,67,,,,,,
"COc1cc2c(Nc3ccc(Br)cc3F)[n+]([Pt-2]3([Cl])[NH2+]C4CCCCC4[NH2+]3)cnc2cc1OCC1CCN(C)CC1 (centres unmarked) [3b, oxaliplatin-vandetanib]",79%,6.8%,90%,,74%,43,,,,,,
C#Cc1cccc(Nc2ncnc3cc(OCCOC)c(OCCOC)cc23)c1 [Erlotinib],,,,,,,12.3%,8.6%,5.9%,49%,,
"Cc1ccc(NC(=O)c2ccc(CN3CCN(C)CC3)cc2)cc1Nc1nccc(-c2cccnc2)n1 [Imatinib, reference compound]",100%,12.3%,100%,100%,100%,,,,,100%,,
"COc1cc2c(Nc3ccc(Br)cc3F)ncnc2cc1OCC1CCN(C)CC1 [Vandetanib, reference compound]",,,,,,,,,100%,20%,19.4%,0.9%
